Values joined by “and” are separate entries in the source; they are usually repeats but may differ in a detail not shown here. Equal entries are not always repeated.
How the values were obtained:
Details in all cases: incubation time: 72 h
CAL-120 [1] = test: normalised response (% of control), CellTiter-Glo; higher = more viable cells (100 = DMSO, 0 = benzethonium chloride kill control)
In short: (§1)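 Each entry is the normalised signal at a single concentration within a series. The series comprised 5 concentrations in 10-fold steps over a compound-specific 10,000-fold range, placed in 384-well plates into which breast cancer cell lines were seeded as 20 µl suspension and incubated 72 h. CellTox Green (485/520 nm) fluorescence and then CellTiter-Glo luminescence were read, with signals normalised per plate to 0.1 % DMSO (100) and a positive kill control (0).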

BT-474 [2] = test: as above
In short: as §1

Hs578T [3] = test: as above
In short: as §1

CAL-51 [4] = test: as above
In short: as §1

HDQ-P1 [5] = test: as above
In short: as §1

CAL-85-1 [6] = test: as above
In short: as §1

SK-BR-3 [7] = test: as above
In short: as §1

MDA-MB-453 [8] = test: as above
In short: as §1

MCF-10A = test: as above
In short: as §1

MDA-MB-231 [9] = test: as above
In short: as §1

DU-4475 [10] = test: as above
In short: as §1

MDA-MB-436 [11] = test: as above
In short: as §1

HCC1937 [12] = test: as above
In short: as §1

MFM-223 [13] = test: as above
In short: as §1

BT-549 [14] = test: as above
In short: as §1

HCC1599 [15] = test: as above
In short: as §1

HCC1143 [16] = test: as above
In short: as §1

MDA-MB-468 [17] = test: as above
In short: as §1

CAL-148 [18] = test: as above
In short: as §1

CAL-120 [19] = test: normalised viability (% of control), CellTiter-Blue; higher = more viable cells (100 = DMSO, 0 = benzethonium chloride kill control)
In short: (§2)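 Vehicle (100) and a positive kill control (0) anchored the normalisation of each plate, and Z'-factor was used for quality control. Breast cancer cell lines in 20 µl suspension were incubated 72 h over compound in 5 µl medium in 384-well plates, followed by CellTiter-Blue at 560/590 nm. The value is normalised viability at a single listed concentration of the series.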

BT-474 [20] = test: as above
In short: as §2

Hs578T [21] = test: as above
In short: as §2

CAL-51 [22] = test: as above
In short: as §2

HDQ-P1 [23] = test: as above
In short: as §2

CAL-85-1 [24] = test: as above
In short: as §2

SK-BR-3 [25] = test: as above
In short: as §2

MDA-MB-453 [26] = test: as above
In short: as §2

MDA-MB-231 [27] = test: as above
In short: as §2

DU-4475 [28] = test: as above
In short: as §2

MDA-MB-436 [29] = test: as above
In short: as §2

HCC1937 [30] = test: as above
In short: as §2

MFM-223 [31] = test: as above
In short: as §2

BT-549 [32] = test: as above
In short: as §2

HCC1599 [33] = test: as above
In short: as §2

HCC1143 [34] = test: as above
In short: as §2

MDA-MB-468 [35] = test: as above
In short: as §2

CAL-148 [36] = test: as above
In short: as §2

SMILES	normalised response (CAL-120 [1])	normalised response (BT-474 [2])	normalised response (Hs578T [3])	normalised response (CAL-51 [4])	normalised response (HDQ-P1 [5])	normalised response (CAL-85-1 [6])	normalised response (SK-BR-3 [7])	normalised response (MDA-MB-453 [8])	normalised response (MCF-10A)	normalised response (MDA-MB-231 [9])	normalised response (DU-4475 [10])	normalised response (MDA-MB-436 [11])	normalised response (HCC1937 [12])	normalised response (MFM-223 [13])	normalised response (BT-549 [14])	normalised response (HCC1599 [15])	normalised response (HCC1143 [16])	normalised response (MDA-MB-468 [17])	normalised response (CAL-148 [18])	normalised viability (CAL-120 [19])	normalised viability (BT-474 [20])	normalised viability (Hs578T [21])	normalised viability (CAL-51 [22])	normalised viability (HDQ-P1 [23])	normalised viability (CAL-85-1 [24])	normalised viability (SK-BR-3 [25])	normalised viability (MDA-MB-453 [26])	normalised viability (MDA-MB-231 [27])	normalised viability (DU-4475 [28])	normalised viability (MDA-MB-436 [29])	normalised viability (HCC1937 [30])	normalised viability (MFM-223 [31])	normalised viability (BT-549 [32])	normalised viability (HCC1599 [33])	normalised viability (HCC1143 [34])	normalised viability (MDA-MB-468 [35])	normalised viability (CAL-148 [36])
Cc1cn(-c2cc(NC(=O)c3ccc(C)c(Nc4nccc(-c5cccnc5)n4)c3)cc(C(F)(F)F)c2)cn1 [Nilotinib] (1 nM)	98.5%	93.5%	100%	98.1%	96.9%	105%	103%	101%	95.4%	98.8%	105%	95.7%	96.1%	96%	102%	112%	95.8%	106%	93.1%	82.1% and 80.6%	87.9% and 96%	97.8% and 107%	106% and 112%	83.1% and 101%	82.6% and 95.6%	93.3% and 92.6%	88.4% and 92.2%	83.9% and 95.6%	110% and 104%	111% and 89.4%	95.5% and 94%	94% and 90.9%	107% and 98.7%	103% and 87.9%	87.8% and 80.8%	96% and 99.2%	91.4% and 96.9%
CC(C)(C)NC(=O)[C@H]1CC[C@H]2[C@@H]3CC[C@H]4NC(=O)C=C[C@]4(C)[C@H]3CC[C@]12C [Finasteride] (1 nM)	99.5%	101%	104%	94.5%	102%	96%	103%	112%	111%	107%	102%	99.5%	96.1%	102%	103%	98.8%	99%	104%	103%	104%	72.8%	108%	108%	133%	97%	74.8%	109%	108%	96.7%	98.7%	100%	96.4%	93.1%	91.6%	107%	105%	110%
Nc1ccn([C@@H]2O[C@H](CO)[C@@H](O)C2(F)F)c(=O)n1 [Gemcitabine] (0.1 nM)	93.6%	97%	106%	101%	95.1%	94.2%	93.4%	107%	99.7%	94.5%	99.9%	102%	95.8%	94.5%	98.4%	97.4%	92.6%	95.8%	96%	96.5%	87%	114%	105%	111%	96.8%	102%	109%	94.6%	93.5%	108%	76.1%	101%	108%	89.4%	101%	100%	103%
CNC(=O)c1ccccc1Sc1ccc2c(/C=C/c3ccccn3)n[nH]c2c1 [Axitinib] (1 nM)	104%	98.6%	98.1%	78.7%	105%	99.8%	109%	109%	101%	111%	104%	95.3%	107%	107%	110%	103%	102%	105%	103%	77.4%	93.5%	97.6%	101%	73.7%	86.8%	104%	95.6%	88.4%	115%	98%	110%	95.5%	96.2%	92.4%	101%	102%	94.9%
CC(=O)[C@]1(O)Cc2c(O)c3c(c(O)c2[C@@H](O[C@H]2C[C@H](N)[C@H](O)[C@H](C)O2)C1)C(=O)c1ccccc1C3=O [Idarubicin] (0.1 nM)	105%	106%	107%	101%	101%	102%	105%	101%	103%	109%	103%	112%	100%	108%	105%	102%	109%	112%	110%	101%	99.8%	112%	102%	115%	95.7%	95.3%	101%	78%	92.2%	112%	92.9%	97%	109%	96.6%	103%	130%	102%
CCNC(=O)CCC/C=C\C[C@@H]1[C@@H](/C=C/[C@@H](O)CCc2ccccc2)[C@H](O)C[C@@H]1O [Bimatoprost] (0.55 nM)	95.8%	95.8%	93.3%	90.8%	92.7%	96.6%	85.8%	108%	91.1%	101%	102%	98.5%	99.9%	94.3%	103%	88.5%	92.6%	99.3%	98.3%	91.6%	110%	113%	120%	119%	94.7%	117%	102%	120%	111%	111%	103%	94.9%	103%	115%	99%	109%	96.5%
CC(O)(CS(=O)(=O)c1ccc(F)cc1)C(=O)Nc1ccc(C#N)c(C(F)(F)F)c1 (stereo unspecified) [Bicalutamide] (1 nM)	107%	110%	99%	114%	102%	104%	106%	91.7%	107%	104%	99%	104%	101%	107%	111%	109%	105%	107%	109%	96%	113%	112%	110%	100%	92.2%	86.9%	97.8%	111%	112%	99.1%	77%	94.8%	107%	93.8%	102%	110%	105%
CCNC(=O)c1noc(-c2cc(C(C)C)c(O)cc2O)c1-c1ccc(CN2CCOCC2)cc1 [NVP-AUY922] (0.1 nM)	107%	113%	94.9%	94.8%	102%	107%	108%	106%	105%	106%	102%	102%	104%	106%	107%	123%	101%	105%	110%	111%	109%	150%	99.5%	81.1%	104%	94.8%	114%	121%	109%	99.6%	91.2%	99.4%	97.2%	103%	121%	106%	104%

From the supplement of paper PMC4862054
